Reference: US8173694B2, “Therapeutic agent” (Pentraxin Therapeutics Limited, priority 2001, dated 2012)
“Also recorded” adds a separate entry of the source.

What was measured:
123I-SAP = 123I-SAP (Homo sapiens, UniProt P02743); test: Quantitative whole body 123I-SAP scintigraphy in patients during drug infusion; type: in vivo
Excerpt: This patient, with a modest load of AL amyloid in the spleen and kidneys, had notable blood pool background of tracer in the heart and circulation before administration of the drug.
This patient, with modest load of AL amyloid in the spleen and kidneys, had notable blood pool background of tracer in the heart and circulation before administration of the drug.
Direct evidence for depletion of SAP from amyloid in the organs and for the mechanism of action of (R)-1-[6-(R)-2-Carboxy-pyrrolidin-1-yl]-6-oxo-hexanoyl]pyrrolidine-2-carboxylic acid was obtained by quantitative whole body scintigraphy using ^123I-SAP as a tracer. Each patient received a standard dose of ^123I-SAP 24 h before the (R)-1-[6-(R)-2-Carboxy-pyrrolidin-1-yl]-6-oxo-hexanoyl]pyrrolidine-2-carboxylic acid infusion started and was scanned immediately before treatment to provide a baseline image and values for localisation of tracer to the amyloid deposits. They were then scanned at intervals thereafter, up to the end of the 48 h infusion. (R)-1-[6-(R)-2-Carboxy-pyrrolidin-1-yl]-6-oxo-hexanoyl]pyrrolidine-2-carboxylic acid caused dramatic clearance of tracer from the plasma, exactly paralleling both in the scintigraphic images and in counting of blood samples, the SAP depletion monitored by immunoassay of the serum. […] At the same time there was a marked decrease in the retention of tracer in amyloid deposits elsewhere, exemplified by the spleen and kidneys, in contrast to the usual situation in control untreated amyloidosis patients (Table 2; FIG. 6).
All patients had systemic AL amyloidosis and received a standard intravenous tracer dose of ^123I-SAP at time zero. After whole body quantitative scintigraphic imaging at 24 h, uptake in liver and spleen were taken as 100% for each individual. Intravenous infusion of the drug (R)-1-[6-(R)-2-Carboxy-pyrrolidin-1-yl]-6-oxo-hexanoyl]pyrrolidine-2-carboxylic acid was then started and scintigraphy with organ counting was repeated at 48 h. The controls received no treatment. Significance of differences between the two groups was sought by t-test.

SAP in whole human serum = biological target: T1, SAP in whole human serum (Homo sapiens, UniProt P02743); test: Size exclusion chromatography of whole human serum mixed with drug: SAP; type: binding
T1 construct: Aliquots of a single pool of whole normal human serum, containing SAP and CRP; from tissue; host or cells: pooled whole normal human serum
Procedure: Aliquots of a single pool of whole normal human serum, containing SAP and CRP, were mixed with (R)-1-[6-(R)-2-Carboxy-pyrrolidin-1-yl]-6-oxo-hexanoyl]pyrrolidine-2-carboxylic acid at the molar ratios shown, with respect to pentraxin protomer, and analysed by size exclusion chromatography precisely as described previously (14). The mixtures and the column eluants contained either no calcium ions or 2 mM calcium, and the concentrations of drug appropriate to maintain the molar ratios indicated above. SAP in whole serum is a stable soluble pentameric assembly of protomers, stabilised by the presence of the normal high concentration of serum albumin. However as SAP is separated from serum albumin during gel filtration with a calcium containing eluant, the SAP autoaggregates and elutes entirely as high molecular weight polymers in the void volume of the column. This is because, in the absence of a specific ligand to which it can bind, isolated human SAP is insoluble in the presence of calcium (14). However in the absence of calcium, where no ligand binding or autoaggregation can occur, SAP forms stable decamers, providing an excellent marker for the elution volume of this molecular assembly (14). Human CRP is a stable pentamer either in the presence or absence of calcium and thus provides a robust marker for the elution position of that molecular form (14).

SAP = SAP binding to experimentally induced amyloid deposits in mice; type: in vivo, mouse; details: compared with 1-(3-Mercapto-2-methyl-1-oxopropyl)-D-proline
Excerpt: The potency of (R)-1-[6-(R)-2-Carboxy-pyrrolidin-1-yl]-6-oxo-hexanoyl]pyrrolidine-2-carboxylic acid in vivo was initially considered to be consistent with its lower IC50 value in vitro. However the decameric assembly of pentameric SAP molecules, induced by the cross linking capacity of the palindromic drug, is an abnormal molecular configuration which, according to the present invention, will be recognised in vivo and promptly cleared from the circulation. This action of the drug, leading to massive depletion of SAP from the plasma, makes a critical contribution to removal of SAP from the amyloid deposits because the SAP in amyloid is derived from, and in equilibrium with, the plasma SAP pool.

plasma SAP = biological target: T2, plasma SAP (Homo sapiens, UniProt P02743); test: Subcutaneous injection in patients with systemic amyloidosis: plasma SAP; type: in vivo; details: subcutaneous injection 0.25 mg/kg/day in 12 hourly divided doses
T2 construct: from tissue; host or cells: plasma of patients in vivo
Procedure: The doses of (R)-1-[6-(R)-2-Carboxy-pyrrolidin-1-yl]-6-oxo-hexanoyl]pyrrolidine-2-carboxylic acid (desapin) shown were given by 12 hourly subcutaneous injections to two individual patients with systemic amyloidosis, and with small and moderate amyloid loads respectively. The disappearance of circulating SAP was effectively the same as during intravenous infusion of the drug, and in the patient illustrated in the right panel, who had received a tracer dose of ^123I-SAP, there was accumulation of SAP in the liver and accelerated clearance from the spleen.

[1] = 24 h after starting infusion, second patient
[2] = 48 h after starting infusion, second patient
[3] = 48 h after tracer injection (drug infusion started at 24 h), 24 h uptake = 100%, 7 patients
[4] = drug:protein 100:1, calcium present

T1 sequence (P02743 20-223): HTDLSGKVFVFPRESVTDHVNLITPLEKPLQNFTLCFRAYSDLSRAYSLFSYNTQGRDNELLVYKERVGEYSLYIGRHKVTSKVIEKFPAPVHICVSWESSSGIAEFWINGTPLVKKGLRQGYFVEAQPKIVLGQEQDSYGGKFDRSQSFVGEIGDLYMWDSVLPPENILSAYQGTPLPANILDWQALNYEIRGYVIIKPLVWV
Chain of 123I-SAP (P02743 20-223): as above
T2 sequence (P02743 20-223): as above

Blood pool background of 123I-SAP tracer (123I-SAP; 6 h after starting infusion, first patient): completely absent
Kidney counts, of time 0 (123I-SAP; [1]): 77%
Spleen counts, of time 0 (123I-SAP; [1]): 85%
Blood pool background of 123I-SAP tracer (123I-SAP; 24 h and 48 h after starting infusion, second patient): completely absent
Kidney counts, of time 0 (123I-SAP; [2]): 50%
Spleen counts, of time 0 (123I-SAP; [2]): 54%
123I-SAP retention [mean (SD)%], Liver (123I-SAP; [3]): 125 (20) %
123I-SAP retention [mean (SD)%], Spleen (123I-SAP; [3]): 54 (18) %
Blood pool signal of 123I-SAP tracer (123I-SAP; by 6 h after starting treatment and persisting thereafter): virtually disappeared
Molecular assembly (SAP in whole human serum; drug:protein 10:1, calcium present): High MW; also recorded: Decamer
Elution volume (SAP in whole human serum; [4]): 10.0 to 10.5 mL
Effect on plasma SAP compared with intravenous infusion (plasma SAP): the same effect
Structure (SMILES): O=C(O)[C@H]1CCCN1C(=O)CCCCC(=O)N1CCC[C@@H]1C(=O)O [(R)-1-[6-(R)-2-Carboxy-pyrrolidin-1-yl]-6-oxo-hexanoyl]pyrrolidine-2-carboxylic acid]
Molecular assembly (SAP in whole human serum; drug:protein 1:1, calcium present): some of the SAP was solubilised as stable drug-decamer complexes; also recorded: High MW
Molecular assembly (SAP in whole human serum; [4]): all the SAP was in this form; also recorded: Decamer
Activity in inhibiting SAP binding and dissociating SAP from deposits, relative to lead compound (SAP): more active
